For 60 molecules, IC50 results are on record in patent US11478460B2, “Diaryl substituted 6,5-fused ring compounds as C5aR inhibitors” (CHEMOCENTRYX, INC., priority 2017, dated 2022).

The assay addresses C5aR (Homo sapiens (Human), UniProt P21730). The experiment in a line: Chemotaxis assay using U937 cells (C5aR mediated migration). It is filed as cell-based. To be noted: read-out: Mig IC50. The gist of the method: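 Migration toward 0.03 nM C5a, mixed with varying compound in the lower chamber (HBSS with 1% FBS), was measured over 1.5 h at 37° C through 5 μm filters. Upper chamber held 100,000 U937 cells treated overnight with 0.5 mM cAMP; migrated cells quantified by counts or CyQuant for IC50, SDF-1α as specificity control.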

SMILES strings stand for the structures.

Sequence of C5aR (P21730 whole entry): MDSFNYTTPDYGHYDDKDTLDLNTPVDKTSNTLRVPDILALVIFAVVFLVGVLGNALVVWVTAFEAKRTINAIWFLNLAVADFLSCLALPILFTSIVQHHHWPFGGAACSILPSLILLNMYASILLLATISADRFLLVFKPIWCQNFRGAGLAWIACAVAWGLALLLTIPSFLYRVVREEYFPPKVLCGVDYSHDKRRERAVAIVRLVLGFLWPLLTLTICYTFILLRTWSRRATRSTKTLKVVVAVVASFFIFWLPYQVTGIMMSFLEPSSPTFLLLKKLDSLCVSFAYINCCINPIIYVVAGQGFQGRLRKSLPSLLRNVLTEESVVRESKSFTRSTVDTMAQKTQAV

What is called IC50 is the point on the concentration scale where inhibition reaches its midpoint. On to `Cc1cccc(OCC(C)C)c1-n1nc2c(c1-c1ccc(NC(N)=O)cc1)CN(C(C)c1ccccc1C(F)(F)F)CC2` (stereo not drawn) [Example 1.330], for which the concentration for half-maximal inhibition (IC50) is at most 5 nM.
With `Cc1cccc(OCC(C)C)c1-n1nc2c(c1-c1ccc(NC(N)=O)cc1)CN(C1CCCC1C)CC2` (stereo not drawn) [Example 1.397], the 50% inhibitory concentration (IC50) lay in the range of 50 to 500 nM.
For `CCc1cccc(CC)c1-n1nc2c(c1-c1cc(F)c(NC(N)=O)cc1F)CN(C(C)(C)c1ccccc1F)CC2` [Example 1.186], the IC50 is at most 5 nM.
The result for `CCc1cccc(CC)c1-n1nc2c(c1-c1cc(F)c(NC(N)=O)cc1F)CN(C(C)c1ccccc1F)CC2` (stereo not drawn) [Example 1.161] reads at most 5 nM; that for `Cc1ccc(C(C)C)nc1N1CCc2nn(-c3c(C)cccc3OCC(C)C)c(-c3ccc(NC(N)=O)cc3)c2C1` [Example 1.347], at most 5 nM; that for `Cc1cccc(OCC(C)C)c1-n1nc2c(c1-c1ccc(NC(N)=O)cc1)CN(C(C)c1ccc(C(F)(F)F)cc1)CC2` (stereo not drawn) [Example 1.303], 5 to 50 nM.
Take `COc1cccc(C)c1-n1nc2c(c1-c1ccc(NC(C)=O)cc1)CN(c1ccccc1C(C)C)CC2` [Example 1.483]: the IC50 is over 500 nM.
Regarding `COc1cccc(C)c1-n1nc2c(c1-c1ccc(NC(N)=O)cc1)CN(c1cc(C(C)(C)C)ccc1C)CC2` [Example 1.462], the IC50 was 5 to 50 nM.
For `Cc1cccc(C)c1-n1nc2c(c1-c1cc(F)c(NC(N)=O)cc1F)CN(c1ccc(Cl)cc1)CC2` [Example 1.095], the IC50 is at most 5 nM.
Consider `Cc1cccc(F)c1-n1nc2c(c1-c1cc(F)c(NC(N)=O)cc1F)CN(c1ncc(Cl)cc1Cl)CC2` [Example 1.176], for which the IC50 was at most 5 nM.
Regarding `CCc1cccc(CC)c1-n1nc2c(c1-c1cc(F)c(NC(N)=O)cc1F)CN(Cc1ccc(C(F)(F)F)cc1F)CC2` [Example 1.066], the 50% inhibitory concentration (IC50) is at most 5 nM.
The result for `Cc1cnc(N2CCc3nn(-c4c(C)cccc4OCC(C)C)c(-c4cc(F)c(NC(N)=O)cc4F)c3C2)c(Cl)c1` [Example 1.190] reads at most 5 nM; that for `Cc1cccc(OCC(C)C)c1-n1nc2c(c1-c1cc(F)c(NC(N)=O)cc1F)CN(c1ncncc1Cl)CC2` [Example 1.141], at most 5 nM.
In the case of `CCC(c1ccccc1)N1CCc2nn(-c3c(C)cccc3C)c(-c3cc(F)c(NC(N)=O)cc3F)c2C1` (stereo not drawn) [Example 1.096], the IC50 was at most 5 nM.
Take `Cc1cccc(OCC(C)C)c1-n1nc2c(c1-c1ccc(NC(N)=O)c(F)c1)CN(C(=O)C1CCCC1)CC2` [Example 1.238]: the IC50 lay in the range of 5 to 50 nM.
As to `COc1cccc(C)c1-n1nc2c(c1-c1ccc(N)cc1)CN(c1ccccc1C)CC2` [Example 1.491], the IC50 fell in the range of 50 to 500 nM.
In the case of `Cc1cc(NC(N)=O)c(F)cc1-c1c2c(nn1-c1c(C)cccc1OCC(C)C)CCN(c1ncc(C(C)C)cc1F)C2` [Example 1.129], the IC50 was at most 5 nM.
Consider `CCc1cccc(CC)c1-n1nc2c(c1-c1cc(F)c(NC(N)=O)cc1F)CN(CCCC(F)(F)F)C(C)(C)C2` [Example 1.008], for which the IC50 was at most 5 nM.
Regarding `Cc1cccc(C)c1-n1nc2c(c1-c1cc(F)c(NC(=O)CO)cc1F)CN(c1ncc(Cl)cc1Cl)CC2` [Example 1.125], the IC50 was 50 to 500 nM.
The result for `Cc1cccc(OCC(C)C)c1-n1nc2c(c1-c1ccc(NC(N)=O)cc1)CN(C(=O)C1CCCCC1)CC2` [Example 1.425] reads over 500 nM.
As for `Cc1cccc(OCC(C)C)c1-n1nc2c(c1-c1ccc(NC(N)=O)c(F)c1)CN(c1ncc(F)cc1F)CC2` [Example 1.249], the IC50 is at most 5 nM.
Regarding `Cc1cccc(OCC(C)C)c1-n1nc2c(c1-c1ccc(NC(N)=O)cc1)CN(Cc1cccc(C(F)(F)F)c1)CC2` [Example 1.338], the IC50 was in the range of 5 to 50 nM.
Consider `Cc1cccc(OCC(C)C)c1-n1nc2c(c1-c1ccc(NC(N)=O)cc1)CN(Cc1cc(Cl)ccc1Cl)CC2` [Example 1.324], for which the IC50 was at most 5 nM.
Consider `Cc1cccc(OCC(C)C)c1-n1nc2c(c1-c1cc(F)c(NC(N)=O)cc1F)CN(c1ccc(Cl)cc1Cl)CC2` [Example 1.194], for which the concentration for half-maximal inhibition (IC50) was at most 5 nM.
On to `CCc1cccc(CC)c1-n1nc2c(c1-c1cc(F)c(NC(N)=O)cc1F)CN(Cc1cc(OC)ccc1C(F)(F)F)CC2` [Example 1.045], for which the 50% inhibitory concentration (IC50) was at most 5 nM.
In the case of `CCc1cccc(CC)c1-n1nc2c(c1-c1ccc(NC(N)=O)c(F)c1)CN(CC1CCCC1)CC2` [Example 1.243], the IC50 was at most 5 nM.
As for `Cc1cccc(OCC(C)C)c1-n1nc2c(c1-c1ccc(NC(N)=O)cc1)CN(C(=O)Cc1ccccc1)CC2` [Example 1.430], the IC50 is over 500 nM.
Consider `Cc1cccc(OCC(C)C)c1-n1nc2c(c1-c1ccc(NC(N)=O)cc1)CN(Cc1cc(F)ccc1F)CC2` [Example 1.310], for which the IC50 lay in the range of 5 to 50 nM.
For `CCc1cccc(CC)c1-n1nc2c(c1-c1cc(F)c(NC(N)=O)cc1F)CN(C(CO)c1ccccc1)CC2` (stereo not drawn) [Example 1.079], the IC50 lay within 5 to 50 nM.
Regarding `COc1cccc(C)c1-n1nc2c(c1-c1ccc(N(C)C)cc1)CN(c1ccccc1C)CC2` [Example 1.487], the IC50 is over 500 nM.
Take `Cc1cccc(C)c1-n1nc2c(c1-c1cc(F)c(NC(N)=O)cc1F)CN(c1cc(C(F)(F)F)ccc1F)CC2` [Example 1.094]: the half-inhibitory concentration (IC50) was at most 5 nM.
As for `Cc1cccc(OCC(C)C)c1-n1nc2c(c1-c1ccc(NC(N)=O)c(F)c1)CN(C(C)C)CC2` [Example 1.264], the IC50 was in the range of 50 to 500 nM.
As for `Cc1cccc(C)c1-n1nc2c(c1-c1ccc(NC(C)C)cc1)CN(c1ccccc1C(C)C)CC2` [Example 1.477], the IC50 is 50 to 500 nM.
In the case of `CCc1cccc(CC)c1-n1nc2c(c1-c1ccc(NC(N)=O)cc1)CN(Cc1ccccn1)CC2` [Example 1.283], the 50% inhibitory concentration (IC50) is over 500 nM.
Under `Cc1cccc(OCC(C)C)c1-n1nc2c(c1-c1cc(F)c(NC(N)=O)cc1F)CN(c1ncc(C3CC3)cc1F)CC2` [Example 1.172] stands at most 5 nM.
Under `Cc1cccc(F)c1-n1nc2c(c1-c1ccc(NC(N)=O)cc1)CN(c1ccccc1C(C)C)CC2` [Example 1.461] stands 50 to 500 nM.
In the case of `Cc1cccc(OCC(C)C)c1-n1nc2c(c1-c1ccc(NC(N)=O)cc1)CN(Cc1c(Cl)cc(C(F)(F)F)cc1C(F)(F)F)CC2` [Example 1.332], the IC50 is at most 5 nM.
With `CCc1cccc(CC)c1-n1nc2c(c1-c1cc(F)c(NC(N)=O)cc1F)CN(C(C)c1ccc(F)cc1)CC2` (stereo not drawn) [Example 1.152], the IC50 was at most 5 nM.
Consider `Cc1cccc(OCC(C)C)c1-n1nc2c(c1-c1ccc(NC(N)=O)c(F)c1)CN(Cc1nccn1C)CC2` [Example 1.233], for which the IC50 is over 500 nM.
The result for `Cc1cccc(OCC(C)C)c1-n1nc2c(c1-c1ccc(NC(N)=O)cc1)CN(Cc1ccc(C(F)(F)F)cc1F)CC2` [Example 1.329] reads at most 5 nM; that for `CCc1cccc(CC)c1-n1nc2c(c1-c1cc(F)c(NC(N)=O)cc1F)CN([C@@H](CC)c1ccccc1)CC2` [Example 1.084], at most 5 nM; that for `NC(=O)Nc1cc(F)c(-c2c3c(nn2-c2ccccc2OC(F)(F)F)CCN(c2ncc(Cl)cc2Cl)C3)cc1F` [Example 1.167], at most 5 nM.
For the molecule `Cc1cccc(OCC(C)C)c1-n1nc2c(c1-c1ccc(NC(N)=O)cc1)CN(C(C)c1ccc(C(F)(F)F)cc1)CC2` (stereo not drawn) [Example 1.306], the IC50 was at most 5 nM.
On to `CCc1cccc(CC)c1-n1nc2c(c1-c1cc(F)c(NC(N)=O)cc1F)CN(Cc1cc(C(F)(F)F)ccc1OC)CC2` [Example 1.037], for which the IC50 is at most 5 nM.
Under `Cc1cccc(OCC(C)C)c1-n1nc2c(c1-c1ccc(NC(N)=O)cc1)CN(Cc1ccc(F)cc1Cl)CC2` [Example 1.326] stands at most 5 nM; under `CCc1cccc(CC)c1-n1nc2c(c1-c1cc(F)c(NC(N)=O)cc1F)CN(CC1(C)COC1)C(C)(C)C2` [Example 1.010], 5 to 50 nM; under `Cc1cc(C(C)(C)O)cnc1N1CCc2nn(-c3c(C)cccc3OCC(C)C)c(-c3ccc(NC(N)=O)cc3)c2C1` [Example 1.364], over 500 nM.
The result for `Cc1cccc(OCC(C)C)c1-n1nc2c(c1-c1ccc(NC(N)=O)cc1)CN(Cc1c(C(F)(F)F)ccc(Cl)c1F)CC2` [Example 1.299] reads at most 5 nM.
On to `CCOc1cccc(C)c1-n1nc2c(c1-c1ccc(NC(N)=O)cc1)CN(c1ccccc1C(C)C)CC2` [Example 1.475], for which the IC50 lay within 5 to 50 nM.
Under `CCC(c1ccccc1)N1CCc2nn(-c3c(C)cccc3OCC(C)C)c(-c3cc(F)c(NC(N)=O)cc3F)c2C1` (stereo not drawn) [Example 1.145] stands at most 5 nM; under `Cc1cccc(OCC(C)C)c1-n1nc2c(c1-c1ccc(NC(N)=O)cc1)CN(c1nc(C(F)(F)F)ccc1C(F)(F)F)CC2` [Example 1.339], at most 5 nM; under `Cc1cccc(OCC(C)C)c1-n1nc2c(c1-c1ccc(NC(N)=O)cc1)CN(c1ncc(C(F)(F)F)cc1Cl)CC2` [Example 1.353], 5 to 50 nM.
With `CCc1cccc(CC)c1-n1nc2c(c1-c1cc(F)c(NC(N)=O)cc1F)CN(Cc1cn(C)nc1C(F)(F)F)CC2` [Example 1.075], the IC50 was 5 to 50 nM.
Turning to `Cc1ccc(C(C)(C)C)cc1N1CCc2nn(-c3c(C)cccc3OCC(C)C)c(-c3ccc(N)cc3)c2C1` [Example 1.458], the IC50 is 5 to 50 nM.
Consider `Cc1cccc(OCC(C)C)c1-n1nc2c(c1-c1cc(F)c(NC(N)=O)cc1F)CN(c1ncc(C(F)(F)F)cc1F)CC2` [Example 1.242], for which the IC50 was at most 5 nM.
As to `Cc1cccc(OCC(C)C)c1-n1nc2c(c1-c1ccc(NC(N)=O)c(F)c1)CN(Cc1nccs1)CC2` [Example 1.234], the IC50 was in the range of 5 to 50 nM.
Take `Cc1cc(C(N)=O)ccc1-c1c2c(nn1-c1c(C)cccc1C)CCN(c1ncc(Cl)cc1Cl)C2` [Example 1.108]: the concentration for half-maximal inhibition (IC50) was over 500 nM.
Turning to `CCc1cccc(CC)c1-n1nc2c(c1-c1cc(F)c(NC(N)=O)cc1F)CN(CC1CCCC1)C(C)(C)C2` [Example 1.043], the IC50 was at most 5 nM.
Regarding `CCNc1ccc(-c2c3c(nn2-c2c(C)cccc2OC)CCN(c2ccccc2C(C)C)C3)cc1` [Example 1.476], the IC50 lay in the range of 5 to 50 nM.
As to `Cc1cccc(OCC(C)C)c1-n1nc2c(c1-c1ccc(NC(N)=O)cc1)CN(C(C)(C)c1ccccc1)CC2` [Example 1.134], the IC50 fell in the range of 5 to 50 nM.
